Measured values: BindingDB's records for doi:10.1021/jm900431g (Boehringer Ingelheim Pharma, 2009)

Target: Vascular endothelial growth factor receptor 2 (Homo sapiens, UniProt P35968)
Test: Inhibition of human VEGFR2 expressed in Sf9 cells

Vascular endothelial growth factor receptor 2, sequence (P35968 whole entry): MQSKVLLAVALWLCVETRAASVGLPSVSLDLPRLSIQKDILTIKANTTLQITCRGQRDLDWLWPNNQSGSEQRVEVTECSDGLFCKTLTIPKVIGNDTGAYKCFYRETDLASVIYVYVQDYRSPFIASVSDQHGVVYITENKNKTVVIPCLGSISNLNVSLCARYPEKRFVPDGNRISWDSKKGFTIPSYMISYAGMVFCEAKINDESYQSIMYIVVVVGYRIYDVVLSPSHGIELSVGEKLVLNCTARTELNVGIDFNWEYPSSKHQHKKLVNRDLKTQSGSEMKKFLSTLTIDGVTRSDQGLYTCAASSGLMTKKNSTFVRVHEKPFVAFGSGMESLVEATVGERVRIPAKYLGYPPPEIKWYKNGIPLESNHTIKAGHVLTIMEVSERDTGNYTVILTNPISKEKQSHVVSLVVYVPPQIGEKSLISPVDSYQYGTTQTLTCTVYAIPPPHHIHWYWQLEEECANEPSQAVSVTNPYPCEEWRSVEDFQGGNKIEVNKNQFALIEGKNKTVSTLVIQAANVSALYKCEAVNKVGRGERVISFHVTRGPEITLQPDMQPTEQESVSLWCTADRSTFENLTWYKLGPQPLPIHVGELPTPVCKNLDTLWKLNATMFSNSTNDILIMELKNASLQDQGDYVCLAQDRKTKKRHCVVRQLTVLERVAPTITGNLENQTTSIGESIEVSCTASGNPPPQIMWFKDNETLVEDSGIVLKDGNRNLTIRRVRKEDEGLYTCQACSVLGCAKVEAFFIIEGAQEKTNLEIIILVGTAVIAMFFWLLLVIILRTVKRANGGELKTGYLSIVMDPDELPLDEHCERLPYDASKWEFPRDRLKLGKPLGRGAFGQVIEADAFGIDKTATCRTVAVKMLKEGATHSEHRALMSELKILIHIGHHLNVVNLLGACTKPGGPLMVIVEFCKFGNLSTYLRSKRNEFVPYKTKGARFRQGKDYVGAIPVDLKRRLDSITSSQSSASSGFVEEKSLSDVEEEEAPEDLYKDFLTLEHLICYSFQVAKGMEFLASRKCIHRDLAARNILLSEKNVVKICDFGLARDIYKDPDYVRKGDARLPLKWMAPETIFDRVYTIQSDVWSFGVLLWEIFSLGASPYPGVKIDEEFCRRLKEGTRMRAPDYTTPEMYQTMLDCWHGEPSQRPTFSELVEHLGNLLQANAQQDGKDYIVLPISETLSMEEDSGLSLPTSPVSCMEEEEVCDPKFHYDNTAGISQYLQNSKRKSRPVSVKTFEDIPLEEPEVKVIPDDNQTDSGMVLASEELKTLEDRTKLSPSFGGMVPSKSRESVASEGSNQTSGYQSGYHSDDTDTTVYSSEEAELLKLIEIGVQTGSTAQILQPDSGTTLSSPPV

Row | Compound | IC50 [µM]
1 | COC(=O)c1ccc2c(c1)NC(=O)C2C(=NC1CCN(C)CC1)c1ccccc1 (stereo not drawn) [(Z)-3-[(1-Methylpiperidin-4-ylamino)-phenyl-methylene]-2-oxo-2,3-dihydro-1H-indole-6-carboxylic Acid Methyl Ester] | > 10
2 | N#Cc1ccc2c(c1)NC(=O)C2C(=Nc1ccc(CN2CCCCC2)cc1)c1ccccc1 (stereo not drawn) [(Z)-6-Cyano-3-[phenyl-(4-piperidin-1-ylmethyl-phenylamino)-methylene]-indolin-2-one] | 0.248
3 | COC(=O)c1ccc2c(c1)NC(=O)C2C(=NC1CCC(NC(=O)CN(C)C)CC1)c1ccccc1 (stereo not drawn) [(Z)-methyl 3-((4-(2-(dimethylamino)acetamido)cyclohexylamino)(phenyl)methylene)-2-oxoindoline-6-carboxylate] | > 10
